In ChEMBL document CHEMBL1147469, “Design and synthesis of de novo cytotoxic alkaloids through mimicking taxoid skeleton” (Bioorg Med Chem Lett, 2004) one finds IC50 data, which are given here for four molecules.

Holding throughout (format): functional, cell-based
For experiment [1], the system named is MDA-MB-435. In words: In vitro cytotoxic activity against growth of MDR1 transduced line (LCC6-MDR) after 72 hr. The settings on record: Homo sapiens, MDA-MB-435, 72 h.
Experiment [2] concerns MCF7S. In words: In vitro cytotoxic activity against growth of human breast carcinoma cell line (MCF-7-S) after 72 hr.
The test system of experiment [3] is MDA-MB-435. In words: In vitro cytotoxic activity against growth of human breast carcinoma cell line (LCC6-WT) after 72 hr. The conditions noted are these: MDA-MB-435, 72 h.
In experiment [4] the test system is MCF7R. Briefly: In vitro cytotoxic activity against growth of MDR phenotype human breast carcinoma cell line (MCF-7-R) after 72 hr.

The IC50 is the concentration at which inhibition is half-maximal. High values mean lower potency, low ones higher potency. Take `CC(C)C[C@@H]1NC(=O)OCCCc2cccc(c2)C(=O)O[C@H]2C=CC(=O)N3C[C@H](C[C@H]23)OC(=O)[C@@H]1O`: the IC50 in experiment [1] was > 20 µM; in experiment [2] (Homo sapiens, MCF7S, 72 h) it was > 20 µM; in experiment [3], > 20 µM; in experiment [4] (Homo sapiens, MCF7R, 72 h), > 20 µM.

Take `COc1cccc(C(=O)O[C@H]2CCC(=O)N3C[C@@H](OC(=O)[C@H](O)[C@H](CC(C)C)NC(=O)OC(C)(C)C)C[C@H]23)c1`: the IC50 is > 20 µM in experiment [1]; 14 µM in experiment [2] (Homo sapiens, MCF7S, 72 h); > 20 µM in experiment [3]; > 20 µM in experiment [4] (Homo sapiens, MCF7R, 72 h).

As for `CC(=O)O[C@H]1C(=O)[C@@]2(C)[C@H]([C@H](OC(=O)c3ccccc3)[C@]3(O)C[C@H](OC(=O)[C@H](O)[C@@H](NC(=O)c4ccccc4)c4ccccc4)C(C)=C1C3(C)C)[C@]1(OC(C)=O)CO[C@@H]1C[C@@H]2O` [PACLITAXEL], the IC50 in experiment [1] came to 0.379 µM; in experiment [2] (Homo sapiens, MCF7S, 72 h), 0.002 µM; in experiment [3], 0.004 µM; in experiment [4] (Homo sapiens, MCF7R, 72 h), 1.19 µM.

Consider CISPLATIN, for which the IC50 in experiment [2] (mcf7s) came to 3.97 µM; in experiment [4] (mcf7r), 3.53 µM.
